Measured values: PMC4451509, “9-cis-13,14-Dihydroretinoic Acid Is an Endogenous Retinoid Acting as RXR Ligand in Mice” (PLoS Genetics, 2015)

Key:
hRARα LBD = biological target: T1, hRARα LBD (Homo sapiens, UniProt P10276); assay: non-denaturing ESI-MS
T1 construct: gene RARA
T1 sequence (P10276 153-421): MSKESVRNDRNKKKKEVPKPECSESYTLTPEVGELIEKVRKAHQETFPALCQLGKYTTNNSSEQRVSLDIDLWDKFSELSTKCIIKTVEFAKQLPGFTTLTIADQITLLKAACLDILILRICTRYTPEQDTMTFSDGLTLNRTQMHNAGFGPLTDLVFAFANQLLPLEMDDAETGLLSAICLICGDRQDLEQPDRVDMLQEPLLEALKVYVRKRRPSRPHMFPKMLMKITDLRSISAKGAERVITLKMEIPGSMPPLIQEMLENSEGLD

hRARβ LBD = biological target: T2, hRARβ LBD (Homo sapiens, UniProt P10826); assay: non-denaturing ESI-MS; assay type: binding
T2 construct: gene RARB; LBD (169–414), N-terminal His-tag
T2 sequence (P10826 169-414): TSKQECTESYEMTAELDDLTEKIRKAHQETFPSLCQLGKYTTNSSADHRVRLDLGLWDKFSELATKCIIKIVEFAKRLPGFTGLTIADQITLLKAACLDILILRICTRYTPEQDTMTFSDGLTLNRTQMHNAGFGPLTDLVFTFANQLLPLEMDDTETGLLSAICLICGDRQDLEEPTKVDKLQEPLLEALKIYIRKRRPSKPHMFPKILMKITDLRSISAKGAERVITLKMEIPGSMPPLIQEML

| SMILES | non-denaturing ESI-MS (hRARα LBD) | non-denaturing ESI-MS (hRARβ LBD) |
| --- | --- | --- |
| CC1=C(/C=C/C(C)=C\C=C\C(C)=C\C(=O)O)C(C)(C)CCC1 [9CRA, 9-cis-retinoic acid] | percent of bound/free protein for hRAR isotypes for R- and S-9CDHRA enantiomers and 9CRA |  |
| CC1=C(/C=C/C(C)=C\C=C\[C@H](C)CC(=O)O)C(C)(C)CCC1 [R-9CDHRA] | revealed that 9CDHRA (R and S) bind to all RAR LBD isotypes | revealed that 9CDHRA (R and S) bind to all RAR LBD isotypes |
| CC1=C(/C=C/C(C)=C\C=C\[C@@H](C)CC(=O)O)C(C)(C)CCC1 [S-9CDHRA] | revealed that 9CDHRA (R and S) bind to all RAR LBD isotypes | revealed that 9CDHRA (R and S) bind to all RAR LBD isotypes |
